The source of these data is patent publication US12522598B2, “3-(2-(heteroaryl)-pyridin-4-yl)-5-(trifluoromethyl)-1,2,4-oxadiazole derivatives as HDAC6 inhibitors” (ORYZON GENOMICS, S.A., priority 2019, dated 2026).

Each structure is given as a SMILES string. Counter-ions that a name gives are not always drawn.

The test concerns the target T1, HDAC6 (Homo sapiens, UniProt Q9UBN7).
T1 construct: purchased BPS Bioscience 50006
T1 sequence (Q9UBN7 1-1215): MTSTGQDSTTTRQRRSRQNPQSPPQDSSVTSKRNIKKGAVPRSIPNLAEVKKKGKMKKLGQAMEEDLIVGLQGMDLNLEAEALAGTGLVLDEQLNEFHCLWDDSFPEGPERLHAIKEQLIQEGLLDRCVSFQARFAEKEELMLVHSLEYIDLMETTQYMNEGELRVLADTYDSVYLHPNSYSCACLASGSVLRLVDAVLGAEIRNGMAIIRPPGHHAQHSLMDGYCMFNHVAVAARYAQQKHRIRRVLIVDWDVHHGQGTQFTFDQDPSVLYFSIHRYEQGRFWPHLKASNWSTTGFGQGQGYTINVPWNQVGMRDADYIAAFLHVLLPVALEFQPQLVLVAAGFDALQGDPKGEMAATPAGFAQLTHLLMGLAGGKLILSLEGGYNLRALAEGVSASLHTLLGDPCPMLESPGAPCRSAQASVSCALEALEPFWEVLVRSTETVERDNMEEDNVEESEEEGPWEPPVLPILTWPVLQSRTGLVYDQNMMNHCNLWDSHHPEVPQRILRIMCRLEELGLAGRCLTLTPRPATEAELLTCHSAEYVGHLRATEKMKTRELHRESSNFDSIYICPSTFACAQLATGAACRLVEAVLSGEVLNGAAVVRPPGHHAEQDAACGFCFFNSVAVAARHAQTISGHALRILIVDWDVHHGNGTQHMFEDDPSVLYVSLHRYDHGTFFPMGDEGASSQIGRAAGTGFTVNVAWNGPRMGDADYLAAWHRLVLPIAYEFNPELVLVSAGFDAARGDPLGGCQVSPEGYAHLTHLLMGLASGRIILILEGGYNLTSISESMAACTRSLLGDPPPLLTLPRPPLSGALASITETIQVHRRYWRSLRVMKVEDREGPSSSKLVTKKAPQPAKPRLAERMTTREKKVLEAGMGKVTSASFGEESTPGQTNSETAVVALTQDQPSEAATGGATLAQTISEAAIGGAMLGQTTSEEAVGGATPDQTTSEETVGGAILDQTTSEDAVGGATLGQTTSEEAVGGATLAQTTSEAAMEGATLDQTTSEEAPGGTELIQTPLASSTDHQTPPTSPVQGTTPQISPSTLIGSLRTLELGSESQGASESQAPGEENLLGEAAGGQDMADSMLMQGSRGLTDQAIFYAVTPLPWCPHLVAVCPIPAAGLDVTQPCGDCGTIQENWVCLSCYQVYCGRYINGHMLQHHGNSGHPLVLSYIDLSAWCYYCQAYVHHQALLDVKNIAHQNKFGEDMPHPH
The test is described as follows: HDAC6 enzyme inhibition assay (fluorimetric). It is filed as biochemical. The note with it: 3 hours preincubation with enzyme, fraction of positive control; for inhibition at 0.1 µM: read-out: HDAC6 % inh @ 0.1 μM; for inhibition at 0.3 µM: read-out: HDAC6 % inh @ 0.3 μM; for inhibition at 1 µM: 1 μM test compound, read-out: HDAC6 % inh @ 1 μM. As to the method: A fluorimetric assay was used to determine the biochemical activity of the inhibitors on HDAC6 in 96-Well Half Area Black Microplates (Corning #3686)+TopSeal-A Black Sealing Film (Perkin Elmer #6050173). Test compounds were dissolved in DMSO. Half-log serial dilutions of test compounds were prepared in DMSO and then diluted 1:10 in assay buffer (BPS Bioscience #50031).
2.5 μL of enzyme (BPS Bioscience #50006) was incubated with 2.5 μL of test compounds for 3 hours in assay buffer with 0.1 mg/mL Bovine Serum Albumin (Sigma-Aldrich #A7030) at 21° C. in 22.5 μL total volume. The enzymatic reaction was started with the addition of 2.5 μL of a fluorogenic acetylated peptide substrate (BPS Bioscience #50037). The final concentration of enzyme and substrate in the reaction were 8.8 nM and 9 μM, respectively. After 45 minutes of incubation at 37° C., the addition of 25 μL of a development solution (BPS
Bioscience #50030) releases a fluorophore whose amount is proportional to the amount of the deacetylated product. Fluorescence intensity was measured after 15 minutes incubation at 21° C. with a Tecan Infinite F200 microplate reader (excitation 360 nm-emission 460 nm).
The negative control (background) was represented by the reaction mix in the absence of the enzyme (with 0.1% DMSO), while the positive control of deacetylase activity was obtained in the absence of test compounds (with 0.1% DMSO) after background subtraction. Percentage of inhibition was calculated as a fraction of the positive control.

`Cn1c(C(=O)N2CCOCC2)cc2cc(-c3cc(-c4noc(C(F)(F)F)n4)ccn3)ncc21` [Example 1, (1-Methyl-5-(4-(5-(trifluoromethyl)-1,2,4-oxadiazol-3-yl)pyridin-2-yl)-1H-pyrrolo[2,3-c]pyridin-2-yl)(morpholino)methanone]: the “HDAC6 % inh @ 0.1 μM” value (0.1 μM test compound) worked out at 59%. In addition, the “HDAC6 % inh @ 0.3 μM” value (0.3 μM test compound) came out at 87%.
Consider `CN(C)CCCN(C)C(=O)c1cc2cc(-c3cc(-c4noc(C(F)(F)F)n4)ccn3)ncc2n1C` [Example 1a, N-(3-(Dimethylamino)propyl)-N,1-dimethyl-5-(4-(5-(trifluoromethyl)-1,2,4-oxadiazol-3-yl)pyridin-2-yl)-1H-pyrrolo[2,3-c]pyridine-2-carboxamide], for which the inhibition at 0.1 µM (0.1 μM test compound) turned out to be 74%. For the same molecule, the inhibition at 0.3 µM (0.3 μM test compound) amounted to 91%.
For the molecule `CN(CCO)C(=O)c1cc2cc(-c3cc(-c4noc(C(F)(F)F)n4)ccn3)ncc2n1C` [Example 1b, N-(2-Hydroxyethyl)-N,1-dimethyl-5-(4-(5-(trifluoromethyl)-1,2,4-oxadiazol-3-yl)pyridin-2-yl)-1H-pyrrolo[2,3-c]pyridine-2-carboxamide], the inhibition at 1 µM is 95%. For the same molecule, the inhibition at 0.1 µM (0.1 μM test compound) amounted to 72%. Under “0.3 μM test compound”, the inhibition at 0.3 µM was 88%.
As to `CN1CCC(CN(C)C(=O)c2cc3cc(-c4cc(-c5noc(C(F)(F)F)n5)ccn4)ncc3n2C)CC1` [Example 1c, N,1-Dimethyl-N-((l-methylpiperidin-4-yl)methyl)-5-(4-(5-(trifluoromethyl)-1,2,4-oxadiazol-3-yl)pyridin-2-yl)-1H-pyrrolo[2,3-c]pyridine-2-carboxamide], the inhibition at 1 µM was 98%. Also, the inhibition at 0.1 µM (0.1 μM test compound) worked out at 85%. The inhibition at 0.3 µM (0.3 μM test compound) was determined as 94%.
Taken in the same sequence, the figures for `Cn1c(C(=O)N(CCO)CCO)cc2cc(-c3cc(-c4noc(C(F)(F)F)n4)ccn3)ncc21` [Example 1d, N,N-Bis(2-hydroxyethyl)-1-methyl-5-(4-(5-(trifluoromethyl)-1,2,4-oxadiazol-3-yl)pyridin-2-yl)-1H-pyrrolo[2,3-c]pyridine-2-carboxamide] were 96%, 79% and 91%.
Taken in the same sequence, the figures for `COCCCn1nc(-c2cc(-c3noc(C(F)(F)F)n3)ccn2)c2ncccc21` [Example 1e, 3-(2-(1-(3-Methoxypropyl)-1H-pyrazolo[4,3-b]pyridin-3-yl)pyridin-4-yl)-5-(trifluoromethyl)-1,2,4-oxadiazole] were 95%, 68% and 88%.
Consider `FC(F)(F)c1nc(-c2ccnc(-c3nn(CC4CCOCC4)c4cccnc34)c2)no1` [Example 1f, 3-(2-(1-((Tetrahydro-2H-pyran-4-yl)methyl)-1H-pyrazolo[4,3-b]pyridin-3-yl)pyridin-4-yl)-5-(trifluoromethyl)-1,2,4-oxadiazole], for which the inhibition at 1 µM came out at 94%. Besides, the inhibition at 0.1 µM (0.1 μM test compound) came to 54%. For the same molecule, the inhibition at 0.3 µM (0.3 μM test compound) amounted to 81%.
In the same order, the values of `COCCn1nc(-c2cc(-c3noc(C(F)(F)F)n3)ccn2)c2nccnc21` [Example 1g, 3-(2-(1-(2-Methoxyethyl)-1H-pyrazolo[3,4-b]pyrazin-3-yl)pyridin-4-yl)-5-(trifluoromethyl)-1,2,4-oxadiazole] are 80%, 28% and 56%.
With `CN(CC1CC1)C(=O)c1cc2cc(-c3cc(-c4noc(C(F)(F)F)n4)ccn3)ncc2n1C` [Example 2, N-(Cyclopropylmethyl)-N,1-dimethyl-5-(4-(5-(trifluoromethyl)-1,2,4-oxadiazol-3-yl)pyridin-2-yl)-1H-pyrrolo[2,3-c]pyridine-2-carboxamide hydrochloride], the inhibition at 1 µM amounted to 96%. For the same molecule, the inhibition at 0.1 µM (0.1 μM test compound) was found to be 75%. For the same molecule, the inhibition at 0.3 µM (0.3 μM test compound) was 92%.
In the same order, the values of `COCCN(C)C(=O)c1cc2cc(-c3cc(-c4noc(C(F)(F)F)n4)ccn3)ncc2n1C` [Example 2a, N-(2-Methoxyethyl)-N,1-dimethyl-5-(4-(5-(trifluoromethyl)-1,2,4-oxadiazol-3-yl)pyridin-2-yl)-1H-pyrrolo[2,3-c]pyridine-2-carboxamide hydrochloride] are 97%, 66% and 89%.
In the case of `CCN(C)C(=O)c1cc2cc(-c3cc(-c4noc(C(F)(F)F)n4)ccn3)ncc2n1C` [Example 2b, N-Ethyl-N,1-dimethyl-5-(4-(5-(trifluoromethyl)-1,2,4-oxadiazol-3-yl)pyridin-2-yl)-1H-pyrrolo[2,3-c]pyridine-2-carboxamide hydrochloride], the inhibition at 1 µM was 96%. The inhibition at 0.1 µM (0.1 μM test compound) stood at 89%. Moreover, for the setting “0.3 μM test compound”, the inhibition at 0.3 µM stood at 95%.
As to `COCCN(CCOC)C(=O)c1cc2cc(-c3cc(-c4noc(C(F)(F)F)n4)ccn3)ncc2n1C` [Example 2c, N,N-Bis(2-methoxyethyl)-1-methyl-5-(4-(5-(trifluoromethyl)-1,2,4-oxadiazol-3-yl)pyridin-2-yl)-1H-pyrrolo[2,3-c]pyridine-2-carboxamide hydrochloride], the inhibition at 1 µM was 97%. For the same molecule, for the setting “0.1 μM test compound”, the inhibition at 0.1 µM stood at 71%. For the same molecule, the inhibition at 0.3 µM (0.3 μM test compound) amounted to 91%.
Turning to `C[C@H]1COCCN1C(=O)c1cc2cc(-c3cc(-c4noc(C(F)(F)F)n4)ccn3)ncc2n1C` [Example 2d, (S)-(1-Methyl-5-(4-(5-(trifluoromethyl)-1,2,4-oxadiazol-3-yl)pyridin-2-yl)-1H-pyrrolo[2,3-c]pyridin-2-yl)(3-methylmorpholino)methanone hydrochloride], the inhibition at 1 µM stood at 96%. Further, where the note is “0.1 μM test compound”, the inhibition at 0.1 µM came out at 64%. The inhibition at 0.3 µM (0.3 μM test compound) is 86%.
For `Cn1c(C(=O)N2CCC(O)C2)cc2cc(-c3cc(-c4noc(C(F)(F)F)n4)ccn3)ncc21` (stereo not shown) [Example 2e, (3-Hydroxypyrrolidin-1-yl)(1-methyl-5-(4-(5-(trifluoromethyl)-1,2,4-oxadiazol-3-yl)pyridin-2-yl)-1H-pyrrolo[2,3-c]pyridin-2-yl)methanone hydrochloride], the inhibition at 1 µM came to 97%. In addition, the inhibition at 0.1 µM (0.1 μM test compound) was determined as 78%. In addition, under “0.3 μM test compound”, the inhibition at 0.3 µM worked out at 92%.
With `Cn1c(C(=O)N2CC[C@@H](O)C2)cc2cc(-c3cc(-c4noc(C(F)(F)F)n4)ccn3)ncc21` [Example 2g, (R)-(3-Hydroxypyrrolidin-1-yl)(1-methyl-5-(4-(5-(trifluoromethyl)-1,2,4-oxadiazol-3-yl)pyridin-2-yl)-1H-pyrrolo[2,3-c]pyridin-2-yl)methanone hydrochloride], the inhibition at 1 µM was 97%. Also, the inhibition at 0.1 µM (0.1 μM test compound) was 78%. The inhibition at 0.3 µM (0.3 μM test compound) is 86%.
